system: MOLM-14 D835Y cells, FLT3 ITD and FLT3 D835Y; assay: Cell proliferation assay (CellTiter-Glo), MOLM-14 D835Y; type: cell-based; details: Homo sapiens, 72 h, 3d-Growth, GMean
Method in brief: (§1)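 MOLM-14 AML cells (endogenous FLT3 ITD, AC220-selected D835Y or F691L variants) or murine Ba/F3 expressing full-length FLT3 ITD/D835Y, without IL-3 for FLT3 dependence, 1×10^4 cells/well. Eight-point 1:3 series from 1 μM final, 0.2% DMSO, 3 days at 37 °C. CellTiter-Glo luminescence (ATP) gave IC50.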

IC50, 0.0001 to 10 µM:
NC1CCC(NS(=O)(=O)c2cccc(-c3cnc4[nH]c(-c5ccccc5)cc4c3)n2)CC1 (centres unmarked) [Compound P-0088, N-(4-aminocyclohexyl)-6-(2-phenyl-1H-pyrrolo[2,3-b]pyridin-5-yl)pyridine-2-sulfonamide]
NC1(C(F)(F)F)CCN(C(=O)c2cccc(-c3cnc4[nH]c(-c5ccccc5)cc4c3)n2)C1 (centres unmarked) [Compound P-0077, [3-amino-3-(trifluoromethyl)pyrrolidin-1-yl]-[6-(2-phenyl-1H-pyrrolo[2,3-b]pyridin-5-yl)-2-pyridyl]methanone]
CC1(N)CCN(C(=O)c2cccc(-c3cnc4[nH]c(-c5ccccc5)cc4c3)n2)C1 (centres unmarked) [Compound P-0078, (3-amino-3-methyl-pyrrolidin-1-yl)-[6-(2-phenyl-1H-pyrrolo[2,3-b]pyridin-5-yl)-2-pyridyl]methanone]
CNC1CCN(C(=O)c2cccc(-c3cnc4[nH]c(-c5ccccc5)cc4c3)n2)C1 (centres unmarked) [Compound P-0040, [3-(methylamino)pyrrolidin-1-yl]-[6-(2-phenyl-1H-pyrrolo[2,3-b]pyridin-5-yl)-2-pyridyl]methanone]

biological target: T1, BA/F3-FLT3-ITD + D835Y cells (Homo sapiens, UniProt P36888, D835Y, cells depend on it, form not given); assay: Cell proliferation assay (CellTiter-Glo), engineered BA/F3 cells; type: cell-based, murine; details: BaF3 FLT3 ITD/D835Y cells, 3d-Growth; read-out: BaF3_FLT3 ITD/D835Y 3d-Growth: IC50
T1 sequence (P36888 1-993 D835Y): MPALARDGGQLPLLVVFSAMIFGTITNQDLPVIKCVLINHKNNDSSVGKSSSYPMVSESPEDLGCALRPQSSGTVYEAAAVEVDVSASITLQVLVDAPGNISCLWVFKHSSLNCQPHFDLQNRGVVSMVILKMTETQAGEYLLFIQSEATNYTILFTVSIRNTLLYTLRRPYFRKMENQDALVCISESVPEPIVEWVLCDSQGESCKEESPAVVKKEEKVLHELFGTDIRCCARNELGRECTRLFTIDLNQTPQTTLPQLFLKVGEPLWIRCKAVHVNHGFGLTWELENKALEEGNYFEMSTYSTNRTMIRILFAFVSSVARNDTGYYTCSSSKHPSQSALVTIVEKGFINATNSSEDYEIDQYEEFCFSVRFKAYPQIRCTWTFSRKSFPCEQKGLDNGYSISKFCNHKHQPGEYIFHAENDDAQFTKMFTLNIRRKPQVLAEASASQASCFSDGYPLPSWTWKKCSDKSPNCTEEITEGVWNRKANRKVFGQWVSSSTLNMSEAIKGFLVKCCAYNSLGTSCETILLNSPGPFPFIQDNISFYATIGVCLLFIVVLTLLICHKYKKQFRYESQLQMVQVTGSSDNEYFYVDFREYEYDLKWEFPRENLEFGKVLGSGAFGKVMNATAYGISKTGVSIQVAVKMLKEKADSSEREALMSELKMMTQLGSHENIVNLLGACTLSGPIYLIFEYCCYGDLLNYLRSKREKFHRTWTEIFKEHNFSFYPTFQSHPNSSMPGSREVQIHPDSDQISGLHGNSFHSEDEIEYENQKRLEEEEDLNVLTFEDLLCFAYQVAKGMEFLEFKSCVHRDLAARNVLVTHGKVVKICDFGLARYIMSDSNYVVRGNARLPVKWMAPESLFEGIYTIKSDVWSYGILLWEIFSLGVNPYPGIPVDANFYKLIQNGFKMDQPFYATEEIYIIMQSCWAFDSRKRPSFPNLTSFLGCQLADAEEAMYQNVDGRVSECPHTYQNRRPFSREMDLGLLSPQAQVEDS
Method in brief: as §1

GI50, 0.0001 to 10 µM:
NC1CCC(NS(=O)(=O)c2cccc(-c3cnc4[nH]c(-c5ccccc5)cc4c3)n2)CC1 (centres unmarked) [Compound P-0088, N-(4-aminocyclohexyl)-6-(2-phenyl-1H-pyrrolo[2,3-b]pyridin-5-yl)pyridine-2-sulfonamide]
NC1(C(F)(F)F)CCN(C(=O)c2cccc(-c3cnc4[nH]c(-c5ccccc5)cc4c3)n2)C1 (centres unmarked) [Compound P-0077, [3-amino-3-(trifluoromethyl)pyrrolidin-1-yl]-[6-(2-phenyl-1H-pyrrolo[2,3-b]pyridin-5-yl)-2-pyridyl]methanone]
CC1(N)CCN(C(=O)c2cccc(-c3cnc4[nH]c(-c5ccccc5)cc4c3)n2)C1 (centres unmarked) [Compound P-0078, (3-amino-3-methyl-pyrrolidin-1-yl)-[6-(2-phenyl-1H-pyrrolo[2,3-b]pyridin-5-yl)-2-pyridyl]methanone]
CNC1CCN(C(=O)c2cccc(-c3cnc4[nH]c(-c5ccccc5)cc4c3)n2)C1 (centres unmarked) [Compound P-0040, [3-(methylamino)pyrrolidin-1-yl]-[6-(2-phenyl-1H-pyrrolo[2,3-b]pyridin-5-yl)-2-pyridyl]methanone]
CN1CCC(NC(=O)c2n[nH]c3ccc(-c4cnc5[nH]c(-c6ccccc6)cc5c4)cc23)CC1 [Compound P-0022, N-(1-methyl-4-piperidyl)-5-(2-phenyl-1H-pyrrolo[2,3-b]pyridin-5-yl)-1H-indazole-3-carboxamide]
O=C(c1cccc(-c2cnc3[nH]c(-c4ccccc4)cc3c2)n1)N1CCC(N2CCOCC2)C1 (centres unmarked) [Compound P-0102, (3-morpholinopyrrolidin-1-yl)-[6-(2-phenyl-1H-pyrrolo[2,3-b]pyridin-5-yl)-2-pyridyl]methanone]
CS(=O)(=O)NC1CCN(C(=O)c2cccc(-c3cnc4[nH]c(-c5ccccc5)cc4c3)n2)C1 (centres unmarked) [Compound P-0101, N-[1-[6-(2-phenyl-1H-pyrrolo[2,3-b]pyridin-5-yl)pyridine-2-carbonyl]pyrrolidin-3-yl]methanesulfonamide]
N[C@H]1CCN(C(=O)c2n[nH]c3ccc(-c4cnc5[nH]c(-c6ccccc6)cc5c4)cc23)C1 [Compound P-0016, [(3S)-3-aminopyrrolidin-1-yl]-[5-(2-phenyl-1H-pyrrolo[2,3-b]pyridin-5-yl)-1H-indazol-3-yl]methanone]
COC1CCN(C(=O)c2cccc(-c3cnc4[nH]c(-c5ccccc5)cc4c3)n2)CC1 [Compound P-0098, (4-methoxy-1-piperidyl)-[6-(2-phenyl-1H-pyrrolo[2,3-b]pyridin-5-yl)-2-pyridyl]methanone]
CN(C)CC#Cc1cc2cc(-c3cccc(S(=O)(=O)NC4CC4)c3)cnc2[nH]1 [Compound P-0009, N-cyclopropyl-3-[2-[3-(dimethylamino)prop-1-ynyl]-1H-pyrrolo[2,3-b]pyridin-5-yl]benzenesulfonamide]
CC(C)(C)OC(=O)NC1CCN(C(=O)c2cccc(-c3cnc4[nH]c(-c5ccccc5)cc4c3)n2)CC1 [Compound P-0017, tert-butyl N-[1-[6-(2-phenyl-1H-pyrrolo[2,3-b]pyridin-5-yl)pyridine-2-carbonyl]-4-piperidyl]carbamate]
N[C@H]1CCN(C(=O)c2ncc(-c3cnc4[nH]c(-c5ccccc5)cc4c3)s2)C1 [Compound P-0054, [(3S)-3-aminopyrrolidin-1-yl]-[5-(2-phenyl-1H-pyrrolo[2,3-b]pyridin-5-yl)thiazol-2-yl]methanone]
CC(=O)NC1CCN(C(=O)c2cccc(-c3cnc4[nH]c(-c5ccccc5)cc4c3)n2)CC1 [Compound P-0020, N-[1-[6-(2-phenyl-1H-pyrrolo[2,3-b]pyridin-5-yl)pyridine-2-carbonyl]-4-piperidyl]acetamide]
O=C(c1cccc(-c2cnc3[nH]c(-c4ccccc4)cc3c2)n1)N1CCC(C(F)(F)F)C1 (centres unmarked) [Compound P-0103, [6-(2-phenyl-1H-pyrrolo[2,3-b]pyridin-5-yl)-2-pyridyl]-[3-(trifluoromethyl)pyrrolidin-1-yl]methanone]
CC(C)(C)OC(=O)NC1CCN(C(=O)c2n[nH]c3ccc(-c4cnc5[nH]c(-c6ccccc6)cc5c4)cc23)CC1 [Compound P-0011, tert-butyl N-[1-[5-(2-phenyl-1H-pyrrolo[2,3-b]pyridin-5-yl)-1H-indazole-3-carbonyl]-4-piperidyl]carbamate]
c1ccc(-c2cc3cc(-c4cccc(OC5CCNCC5)n4)cnc3[nH]2)cc1 [Compound P-0050, 2-phenyl-5-[6-(4-piperidyloxy)-2-pyridyl]-1H-pyrrolo[2,3-b]pyridine]
O=S(=O)(NC1CC1)c1cccc(-c2cnc3[nH]c(C#CC4CCCCC4)cc3c2)c1 [Compound P-0010, 3-[2-(2-cyclohexylethynyl)-1H-pyrrolo[2,3-b]pyridin-5-yl]-N-cyclopropyl-benzenesulfonamide]
O=S(=O)(NC1CC1)c1cccc(-c2cnc3[nH]c(C#Cc4ccccc4)cc3c2)c1 [Compound P-0014, N-cyclopropyl-3-[2-(2-phenylethynyl)-1H-pyrrolo[2,3-b]pyridin-5-yl]benzenesulfonamide]
CC(=O)NC1CCN(C(=O)c2n[nH]c3ccc(-c4cnc5[nH]c(-c6ccccc6)cc5c4)cc23)CC1 [Compound P-0021, N-[1-[5-(2-phenyl-1H-pyrrolo[2,3-b]pyridin-5-yl)-1H-indazole-3-carbonyl]-4-piperidyl]acetamide]
N[C@H]1CCN(C(=O)c2cccc(-c3cnc4[nH]c(-c5ccccc5)cc4c3)n2)C1 [Compound P-0015, [(3S)-3-aminopyrrolidin-1-yl]-[6-(2-phenyl-1H-pyrrolo[2,3-b]pyridin-5-yl)-2-pyridyl]methanone]
CC1(C#N)CCN(C(=O)c2cccc(-c3cnc4[nH]c(-c5ccccc5)cc4c3)n2)CC1 [Compound P-0094, 4-methyl-1-[6-(2-phenyl-1H-pyrrolo[2,3-b]pyridin-5-yl)pyridine-2-carbonyl]piperidine-4-carbonitrile]
CN(C)S(=O)(=O)Nc1cccc(-c2cnc3[nH]c(-c4ccccc4)cc3c2)c1 [Compound P-0007, 5-[3-(dimethylsulfamoylamino)phenyl]-2-phenyl-1H-pyrrolo[2,3-b]pyridine]
CCOC(=O)C1CCN(C(=O)c2cccc(-c3cnc4[nH]c(-c5ccccc5)cc4c3)n2)CC1 [Compound P-0025, ethyl 1-[6-(2-phenyl-1H-pyrrolo[2,3-b]pyridin-5-yl)pyridine-2-carbonyl]piperidine-4-carboxylate]
O=S(=O)(NC1CC1)c1cccc(-c2cnc3[nH]c(C#CCO)cc3c2)c1 [Compound P-0008, N-cyclopropyl-3-[2-(3-hydroxyprop-1-ynyl)-1H-pyrrolo[2,3-b]pyridin-5-yl]benzenesulfonamide]
N#CC1CCN(C(=O)c2cccc(-c3cnc4[nH]c(-c5ccc(F)cc5)cc4c3)n2)C1 (centres unmarked) [Compound P-0116, 1-[6-[2-(4-fluorophenyl)-1H-pyrrolo[2,3-b]pyridin-5-yl]pyridine-2-carbonyl]pyrrolidine-3-carbonitrile]

From patent US9938273B2 (Plexxikon Inc., priority 2015, dated 2018)
